This is an account of results in ChEMBL document CHEMBL1201862, “PubChem BioAssay data set” (2004).

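Exposure lasted 48 hours, with cells grown in 96-well plates and compounds tested at five concentrations. The concentration for 50% growth inhibition is given as GI50.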 Activity calls are given as the source filed them. Rule as the data show it: active = GI50 up to about 1.1 µM and inactive = higher.

Some test systems named below: T47D; M14; UACC-257; HCT-15; SN12C; Hs-578T; MOLT-4; NCI-H226; HCT-116; OVCAR-4; 786-0; K562; KM12; CCRF-CEM; MDA-MB-231; UO-31; U-251; SK-OV-3; SK-MEL-5; HOP-92.
Holding throughout (test): NCI-60 cell line screen, 48 h

Take `Cc1nc(N)c(N2CCN(S(=O)(=O)N(Cc3ccccc3)Cc3ccccc3)CC2)c(O)n1`: the GI50 with T47D was 15.3 µM (inactive); in the assay with M14, 28.5 µM (inactive); with UACC-257 it was 25.4 µM (inactive); with HCT-15, more than 100 µM; in the assay with SN12C, 32.7 µM (inactive); in the assay on Hs-578T, 33.3 µM (inactive). Besides, the GI50 in the assay with MOLT-4 is > 100 µM (inactive); with NCI-H226 it was 30.1 µM (inactive); in the assay on HCT-116 it was 28.1 µM (inactive); in the assay on OVCAR-4, 22.2 µM (inactive); in the assay with 786-0, 28.9 µM (inactive); in the assay on K562, > 100 µM (inactive). The GI50 with KM12 was 56.9 µM (inactive); in the assay with CCRF-CEM, > 100 µM (inactive); in the assay on MDA-MB-231, 62.4 µM (inactive); in the assay with UO-31 it was > 100 µM (inactive); in the assay on U-251, 16.9 µM (inactive).
On to `CC12CCC(C(=O)OC1=O)C2(C)C` (stereo not drawn), for which the GI50 with T47D was > 100 µM (inactive); with M14, > 100 µM (inactive); in the assay on UACC-257, 8.81 µM (inactive); in the assay with HCT-15, more than 100 µM; in the assay with SK-OV-3, > 100 µM (inactive); in the assay on SN12C, > 100 µM (inactive). For the same compound, the GI50 in the assay on Hs-578T, in the assay with MOLT-4, in the assay with NCI-H226, with HCT-116, in the assay on OVCAR-4 and with 786-0 was > 100 µM (inactive) in each case. Also, the GI50 in the assay with K562, in the assay on KM12, in the assay on CCRF-CEM, with MDA-MB-231, in the assay on UO-31 and in the assay with U-251 was > 100 µM (inactive) in each case.
Turning to `Cc1ccc(NC(=O)CC(=O)n2nc(C)c(/N=N/c3ccc(S(=O)(=O)CCOS(=O)(=O)O)cc3)c2C)cc1`, the GI50 in the assay with T47D was > 100 µM (inactive); in the assay with M14, > 100 µM (inactive); with UACC-257 it was 80 µM (inactive); with HCT-15, more than 10 µM; with SK-OV-3, > 100 µM (inactive); in the assay with SN12C, > 10 µM (inactive). The GI50 in the assay with Hs-578T, in the assay with MOLT-4, with NCI-H226, in the assay with HCT-116, in the assay on SK-MEL-5 and in the assay with 786-0 was > 100 µM (inactive) each time. The GI50 in the assay with K562, in the assay on KM12, in the assay with CCRF-CEM, in the assay with MDA-MB-231, in the assay on UO-31 and in the assay with U-251 was > 100 µM (inactive) in each case.
For `O=C(C#CP(=O)(O)c1ccccc1)c1ccccc1`, the GI50 in the assay on T47D is > 100 µM (inactive); with M14, > 100 µM (inactive); with UACC-257 it was > 100 µM (inactive); with HCT-15 it was more than 100 µM; with SK-OV-3, > 100 µM (inactive); with SN12C, > 100 µM (inactive). Further, the GI50 in the assay on Hs-578T, in the assay with HOP-92, with HCT-116, in the assay on OVCAR-4, in the assay on SK-MEL-5 and in the assay with 786-0 was > 100 µM (inactive) in each case. The GI50 with K562 is > 100 µM (inactive); with KM12 it was > 100 µM (inactive); with UO-31, < 0.01 µM (active); in the assay with U-251 it was > 100 µM (inactive).
Turning to `COC(=O)c1ccc(C)cc1C1CN=NC12Cc1cc(C)c(C)cc1C2=O` (stereo not drawn), the GI50 is 35.4 µM (inactive) in the assay with M14; 53.2 µM (inactive) in the assay on UACC-257; 48.1 µM in the assay with HCT-15; 42.4 µM (inactive) in the assay with SN12C; 46.5 µM (inactive) in the assay with Hs-578T; 26.7 µM (inactive) with MOLT-4. Besides, the GI50 in the assay with HOP-92 is 34.2 µM (inactive); in the assay with NCI-H226, 45.1 µM (inactive); in the assay on HCT-116 it was 24.2 µM (inactive); in the assay with OVCAR-4, > 100 µM (inactive); in the assay with SK-MEL-5, 14.9 µM (inactive); in the assay with 786-0 it was 54.7 µM (inactive). In addition, the GI50 is 27.4 µM (inactive) with K562; 30.2 µM (inactive) in the assay with KM12; 31 µM (inactive) in the assay with CCRF-CEM; 27 µM (inactive) with MDA-MB-231; 46.1 µM (inactive) in the assay on UO-31; 46.7 µM (inactive) with U-251.
Take `O=c1[nH]c(=O)n(COCc2ccccc2)cc1Nc1ccc(Br)cc1`: the GI50 in the assay on M14 was > 100 µM (inactive); in the assay on UACC-257 it was > 100 µM (inactive); in the assay with HCT-15, more than 100 µM; in the assay on SN12C it was > 100 µM (inactive); in the assay with Hs-578T, > 100 µM (inactive); in the assay with MOLT-4, > 100 µM (inactive). For the same compound, the GI50 with HOP-92, with NCI-H226, in the assay on HCT-116, in the assay with OVCAR-4, in the assay on SK-MEL-5 and with 786-0 was > 100 µM (inactive) throughout. Also, the GI50 in the assay on K562, in the assay with KM12, in the assay with CCRF-CEM, in the assay on UO-31 and in the assay on U-251 was > 100 µM (inactive) throughout.
On to `Nc1nc(NNc2ccc(Cl)c(Cl)c2)cc(=O)[nH]1`, for which the GI50 with M14 was 34.2 µM (inactive); in the assay with UACC-257, 43.2 µM (inactive); in the assay on HCT-15 it was 19.7 µM; with SN12C, 38.1 µM (inactive); in the assay on Hs-578T, 30.5 µM (inactive); with MOLT-4, 19.4 µM (inactive). Further, the GI50 with HOP-92 was 21.9 µM (inactive); in the assay with NCI-H226 it was 78.9 µM (inactive); in the assay on HCT-116, 52.4 µM (inactive); in the assay with OVCAR-4, 52 µM (inactive); in the assay with SK-MEL-5 it was 33.4 µM (inactive); in the assay on 786-0, 21.6 µM (inactive). The GI50 with K562 was 18.9 µM (inactive); with KM12, 30.8 µM (inactive); in the assay on CCRF-CEM it was 36.4 µM (inactive); in the assay on MDA-MB-231, 33.8 µM (inactive); with UO-31, 29.9 µM (inactive); in the assay with U-251, 24.2 µM (inactive).
Turning to `C=CCOC(=O)CCCCCCCCCCCCCCCOC(=O)C1=C(CCC[C@@H](C)O[Si](C)(C)C(C)(C)C)NC(=O)N2[C@H](CC3(CC/C=C\[C@H](CC)O[Si](C(C)C)(C(C)C)C(C)C)OCCO3)CC[C@H]12`, the GI50 in the assay on T47D is > 100 µM (inactive); with M14 it was > 100 µM (inactive); in the assay on UACC-257, > 100 µM (inactive); in the assay with HCT-15, more than 100 µM; with SK-OV-3, > 100 µM (inactive); with SN12C, > 100 µM (inactive). The GI50 in the assay on HOP-92 was 18.9 µM (inactive); in the assay on NCI-H226, > 100 µM (inactive); in the assay on HCT-116, > 100 µM (inactive); with OVCAR-4 it was > 100 µM (inactive); with SK-MEL-5, > 100 µM (inactive); in the assay on 786-0, > 100 µM (inactive). For the same compound, the GI50 with KM12, in the assay on CCRF-CEM, with MDA-MB-231, with UO-31 and in the assay with U-251 was > 100 µM (inactive) each time.
On to `CC(=O)NNC(=S)N/C=C1/C(=O)Oc2ccccc2C1=O`, for which the GI50 in the assay with T47D is 5.2 µM (inactive); with M14, > 100 µM (inactive); with UACC-257, > 100 µM (inactive); in the assay with HCT-15, more than 100 µM; with SN12C, > 100 µM (inactive); in the assay on Hs-578T, > 100 µM (inactive). Further, the GI50 in the assay on MOLT-4, with NCI-H226, with HCT-116, in the assay with OVCAR-4, in the assay with SK-MEL-5 and with 786-0 was > 100 µM (inactive) each time. The GI50 in the assay with K562, in the assay with KM12, with CCRF-CEM, in the assay on MDA-MB-231, with UO-31 and with U-251 was > 100 µM (inactive) each time.
Consider `CC(C)Cc1ccc(C(C)/C=C2\CCC(CN3CCOCC3)C2=O)cc1` (stereo not drawn), for which the GI50 in the assay on M14 was 5.02 µM (inactive); in the assay with UACC-257, 7.14 µM (inactive); with HCT-15 it was 2.94 µM; in the assay on SK-OV-3, 18.8 µM (inactive); in the assay with SN12C, 9.27 µM (inactive); in the assay on Hs-578T, 3.6 µM (inactive). The GI50 with MOLT-4 is 1.64 µM (inactive); in the assay with HOP-92 it was 15.5 µM (inactive); in the assay on NCI-H226, 20.3 µM (inactive); in the assay on HCT-116, 5.26 µM (inactive); in the assay on OVCAR-4 it was 17.7 µM (inactive); in the assay with SK-MEL-5, 10.4 µM (inactive). For the same compound, the GI50 in the assay on 786-0 is 1.69 µM (inactive); in the assay on K562 it was 1.92 µM (inactive); with KM12 it was 5.47 µM (inactive); in the assay with CCRF-CEM, 1.3 µM (inactive); in the assay on MDA-MB-231 it was 1.73 µM (inactive); with UO-31, 8.73 µM (inactive). Besides, the GI50 in the assay on U-251 is 13.5 µM (inactive).
As for `C=CCn1c(-c2ccc([N+](=O)[O-])cc2)cs/c1=N\C(P(=O)(O)O)P(=O)(O)O`, the GI50 in the assay with M14 is > 100 µM (inactive); in the assay with UACC-257 it was > 100 µM (inactive); in the assay with HCT-15, more than 100 µM; with SK-OV-3 it was > 100 µM (inactive); in the assay with Hs-578T it was > 100 µM (inactive); with MOLT-4 it was > 100 µM (inactive). In addition, the GI50 with HOP-92, in the assay on NCI-H226, in the assay with HCT-116, with SK-MEL-5, with 786-0 and in the assay with K562 was > 100 µM (inactive) throughout. In addition, the GI50 with KM12, with CCRF-CEM, with MDA-MB-231, in the assay with UO-31 and in the assay with U-251 was > 100 µM (inactive) in each case.
